Test results as given in US12616674B2, “Anti-fibrotic NEU3 inhibitor compounds and methods of use” (The Texas A&M University System, priority 2019, dated 2026).

How the values were obtained:
[1] = biological target: T1, recombinant human sialidase NEU3 (Homo sapiens, UniProt Q9UQ49); assay: NEU3-catalyzed L-TGF-β1 activation (TGF-β1 release/concentration assay, active TGF-β1 ELISA); format: biochemical; details: recombinant human NEU3, L-TGF-β1, PBS pH 6.9, 2 hours 37° C.; read-out: IC50, inhibits human NEU3 in the TGF-β1 concentration assay
T1 construct: purchased Origene TP316537
T1 sequence (Q9UQ49 1-428): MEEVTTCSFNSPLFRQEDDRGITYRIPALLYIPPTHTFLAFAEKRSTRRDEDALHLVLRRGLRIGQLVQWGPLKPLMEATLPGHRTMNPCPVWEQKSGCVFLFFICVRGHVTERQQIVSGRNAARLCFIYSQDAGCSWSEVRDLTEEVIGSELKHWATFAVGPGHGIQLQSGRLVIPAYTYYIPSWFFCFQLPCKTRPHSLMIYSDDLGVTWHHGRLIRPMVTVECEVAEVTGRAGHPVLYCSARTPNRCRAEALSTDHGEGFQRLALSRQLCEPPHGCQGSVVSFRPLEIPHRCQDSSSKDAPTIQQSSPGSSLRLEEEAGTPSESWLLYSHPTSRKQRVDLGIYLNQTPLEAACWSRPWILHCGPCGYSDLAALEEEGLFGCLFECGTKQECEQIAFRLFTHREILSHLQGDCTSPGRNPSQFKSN
Method: To determine if NEU3 can cause latent transforming growth factor-β1 (L-TGF-β1) to release active TGF-β1, 200 ng/ml recombinant human L-TGF-β1 (299-LT/CF, R&D Systems) was incubated with varying concentrations of recombinant human NEU3 (TP316537, Origene) in a total volume of 100 μl of PBS pH 6.9 in a 96-well microplate (651261, Greiner Bio-one, Monroe, NC). The microplates were covered with aluminum foil and incubated at 37° C. for 2 hours. Following incubation, the reaction mixtures were assayed using a TGF-β1 ELISA kit (DY240, R&D Systems) following the manufacturer's protocol with the exception that the reaction mixtures were not processed for acid treatment, so as to measure only active TGF-β1 and not total TGF-β1. The absorbance was read with a SynergyMX plate reader (BioTek, Winooski, VT).
To determine the ability of compounds 1-31 to inhibit human recombinant NEU3 in-vitro, compounds were dissolved in 5 ml water to 20 mM in 15 ml tubes (89039-664, VWR, Radnor, PA), with the exception that 4-hydroxypyridine-2-carboxylic acid, nicotinic acid, and 4-aminopicolinic acid were dissolved in 50 μl DMSO to 2 M, and this was then added to 4.95 ml of water to make a 20 mM stock, and O-(tetrahydro-2H-pyran-2yl) hydroxylamine and salicylic acid were dissolved in 50 μl methanol to 2 M, and this was then added to 4.95 ml of water to make a 20 mM stock. All stocks were stored at 4° C. and used within 2 weeks of preparation. A 10-fold dilution series of the compounds starting at 2 mM were made in PBS pH 6.9 in 1.7 ml clear microtubes (22-281, Genesee Scientific). 100 μl of diluted compound was added to the well of a 96 well plate and then 50 μl of 400 ng/ml recombinant human sialidase NEU3 (TP316537, Origene) in PBS pH 6.9 was added to each well (50 μl PBS pH 6.9 for the control), and the plate was incubated for 30 minutes at 37° C. 50 μl of 800 ng/ml L-TGF-β1 (299-LT/CF, R&D Systems) in PBS pH 6.9 was then added to the well. The plate was covered with aluminum foil and incubated for 2 hours at 37° C., and released active TGF-β1 was assayed as described above.

[2] = biological target: T2, recombinant mouse NEU3 (Mus musculus, UniProt Q9JMH7); assay: Recombinant mouse NEU3-catalyzed TGF-β1 activation (TGF-β1 ELISA); format: biochemical; details: recombinant mouse NEU3, FIGS. 7A-B
T2 construct: c-Myc; host or cells: HEK 293 Freestyle cells
T2 sequence (Q9JMH7 1-418): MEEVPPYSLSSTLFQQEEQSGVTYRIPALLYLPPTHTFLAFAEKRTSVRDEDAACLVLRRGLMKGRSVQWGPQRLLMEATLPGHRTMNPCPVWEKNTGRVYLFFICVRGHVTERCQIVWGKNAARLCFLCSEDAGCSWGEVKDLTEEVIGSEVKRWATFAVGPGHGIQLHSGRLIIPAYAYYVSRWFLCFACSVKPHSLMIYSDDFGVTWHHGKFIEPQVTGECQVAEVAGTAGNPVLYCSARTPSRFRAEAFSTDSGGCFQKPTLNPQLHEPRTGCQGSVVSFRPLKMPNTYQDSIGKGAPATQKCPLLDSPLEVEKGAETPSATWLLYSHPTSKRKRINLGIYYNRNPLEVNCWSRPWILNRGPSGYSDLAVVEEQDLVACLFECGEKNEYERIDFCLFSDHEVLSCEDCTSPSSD
Method: To determine if selected NEU3 inhibitors could be used in mice to inhibit mouse NEU3, we made recombinant mouse NEU3 in HEK 293 Freestyle human embryonic kidney cells. HEK 293 Freestyle cells (Life Technologies, Grand Island, NY) were cultured in FreeStyle 293 media (12338-018, Life Technologies, Grand Island, NY). 1×10^5 cells were mixed with 2 μg of 100 μg/ml of murine Neu3 expression clone (MR223297, Origene), in 100 μl PBS (GE Lifesciences), and were transfected by electroporation using a 4D-Nucelofactor System (Lonza) following the manufacturer's protocol. The transfected cells were kept at room temperature for 15 minutes for recovery, after which the cells were cultured in 25 ml Freestyle 293 media with 250 μg/ml of G418 antibiotic (345812, Calbiochem EMD Chemicals Inc. San Diego, CA) to select for transfected cells, in a 200 ml cell culture flask (431464U, Corning) at 37° C. humidified with 5% CO2. After 10 days, the cells were isolated, lysed, and c-Myc tagged recombinant mouse NEU3 protein was purified using a Myc-Trap A kit (ytak-20, Chromotek, Hauppauge, NY) following the manufacturer's protocol. The eluted protein was stored in 50 μl of 10% glycerol, 100 mM glycine, 25 mM Tris-HCl pH 7.3.
To determine if NEU3 inhibitors would be effective in mice, NEU3 inhibitors were tested against recombinant mouse NEU3. […]

| IC50 [1] | inhibition of NEU3's activation of TGF-β1 [2] | SMILES |
| --- | --- | --- |
| 0.014 nM | inhibited | COC(=O)c1ccccn1 [Compound 6, methyl picolinate] |
| < 0.01 nM | – | CN1CCC(N)CC1C(=O)O (centres unmarked) [Compound 26, 2-piperidinecarboxylic acid, 4-amino-1-methyl] |
| 42 nM | inhibited | CC(=O)c1ccccn1 [Compound 5, 2-acetylpyridine] |
